The source of these data is patent US7169604B1, “Method for PR-39 peptide mediated selective inhibition of IκBα degradation” (Beth Israel Deaconess Medical Center, priority 1998, dated 2007).

Each structure is given as a SMILES string. Peptide text beside a SMILES is read from it. * marks the point of attachment. Cbz = O=C(OCc1ccccc1)*

Assay type in all cases: cell-based, human
Assay [1] relates to IκBα. Briefly: TNF-α induced degradation of IκBα in U937 cells. Particulars: 45 min pretreatment with 10 μM, TNF-α 1 ng/ml, 10 min. As for the experimental part:
Tumor necrosis factor (TNF)-α is known to induce rapid degradation of IκBα by the Ub-proteasome pathway.
As shown by FIG. 1E, PR-39 prevents TNF-a induced degradation of IκBα. U937 cells were cultured in 10% FBs-RPMI medium in the absence (−) or presence of TNF-a (1 ng/ml). 10 min following TNF-α addition, the cells were washed and IκBα protein levels assessed by Western blotting.
Note that a […] 45 min of pretreatment with 100 nM of PR-39 or 10 μM of MG132 or lactacystin (LC) prior to addition of blocked TNF-α, blocked cytokine-induced degradation of IκBα expression.

Assay [2] relates to IκBα. Briefly: Reversibility of inhibition of IκBα degradation after washout in U937 cells. Particulars: 10 μM for 45 min, washed, 45 min later TNF-α 1 ng/ml, 10 min. As for the experimental part: In parallel cells were exposed to MG132, a rapidly reversible competitive inhibitor of the proteasome or with lactacystin which covalently and irreversibly modifies the active site threonine residues. The results are shown by FIG. 1F.
U937 cells were pretreated with 100 nM of PR-39, 10 μM of either MG132 or lactacystin (LC) or buffer (Control) for 45 min. These cells were then extensively washed with fresh medium. 45 min later TNF-α (1 ng/ml) was added to medium, and the extent of IκBα degradation was determined 10 min later by Western blotting.

Another assay relates to U937 cells. Briefly: Proteasome-dependent degradation of total cellular proteins (35S Met pulse-chase). Particulars: Homo sapiens, U-937, 1 hr chase, chloroquin 45 μM, after 16 hr metabolic labeling, read-out: inhibition of total cell protein degradation. The method, then: Therefore the extent of degradation of long-lived cell proteins before or following exposure was compared to either PR-39 or MG132. The result is given by FIG. 3A.
Exponentially proliferating U937 cells were grown in 10% FBS-RPMI 1640 methionine-free medium supplemented with 200 μCi ^35S Met for 16 hr. Cells were then washed with complete RPMI 1640 medium 3 times and cultured in 10% FBS-RPMI (chase) in the presence of 10 μM of either PR-39 or MG132 or an equal volume of PBS. Chloroquin (45 μM) was added to all cultures to prevent the lysosomal protein degradation. 1 hr later the cells were lysed, and TCA soluble ^35S counts were measured in a liquid scintillation counter (LKB). All experiments were carried out in triplicate and repeated three times. The data are shown as mean±standard deviation.

A further assay has as its system HSP70. In words: HSP70 expression by Western blotting.
For another assay, the system named is NFκB. Briefly: NFκB-dependent luciferase reporter (pNFκB-Luc) in ECV304 cells. Particulars: 45 min pretreatment with 10 μM, TNF-α 1 ng/ml. As for the experimental part: The results are presented by FIG. 2A.
The effect of PR-39-mediated inhibition of IκBα degradation on NFκB-dependent transcription was tested in ECV304 cells transiently transfected with pNFκB-Luc reporter vector.
On the technique in general: In a reporter assay the amount or activity of a reporter protein is the signal.

The test system of assay [3] is IκBα. In words: IκBα protein levels in ECV304 cells by Western blotting. Particulars: ECV304 cells, 2 hr, 10 μM. As for the experimental part:
For IκBα expression studies, normally proliferating wild type ECV304 cells (ECV) or ECV-PR-39 and ECV-E4 cells were lysed in the loading buffer, subjected to electrophoresis on 10% SDS-PAGE gel and transferred to a PVDF membrane. IκBα expression was then determined by Western blotting with anti-IκBα antibody (Santa Cruz, Inc.). ECV304 cells treated for 2 hr with 10 μM of lactacystin (LC) were used as control.
Western blotting of ECV cell lysate was carried out following 2 hr exposure to buffer (0) or 100 or 50 nM of PR-39. […] Clearly, exposure of wild type ECV304 cells to the synthetic PR-39 peptide led to a dose-dependent increase in IκBα levels.
In general terms: A western blot detects proteins with antibodies after separation by electrophoresis.

`CC(C)C[C@@H](C=O)NC(=O)[C@H](CC(C)C)NC(=O)[C@H](CC(C)C)NC(=O)OCc1ccccc1` [MG132, reference compound] (Cbz-Leu-Leu-Leu-aldehyde): the “TNF-α caused decline of the level of IκBα” value in the assay on IκBα [1] is listed as “markedly reduced”. For the same compound, in the assay on IκBα [2], the “extent of IκBα degradation after washout” value is on record as “complete disappearance of IκBα protein”. The inhibition – broadly, the relative decrease from the control value, in per cent – at 10 µM in the assay with U937 cells is around 50%. In the assay on HSP70 (U937 cells, 1 μM, 3 hr exposure), the HSP70 expression entry was “appearance of HSP70 expression”. The HSP70 levels entry with HSP70 (cultured ECV304 cells, 10 μM) was “striking increase in HSP70 levels”. Also, the “TNF-α induced increase in luciferase activity” value in the assay on NFκB is “completely blocked”.
In the case of `CC(=O)N[C@@H](CSC(=O)[C@]1([C@@H](O)C(C)C)NC(=O)[C@H](C)[C@@H]1O)C(=O)O` [lactacystin], the “TNF-α caused decline of the level of IκBα” value with IκBα [1] is recorded as “markedly reduced”. Further, the “extent of IκBα degradation after washout” value in the assay on IκBα [2] was “irreversibly blocked proteasome-mediated degradation of IκBα”. The IκBα levels entry with IκBα [3] is listed as “increased IκBα levels”. The “TNF-α induced increase in luciferase activity” value in the assay on NFκB was “completely blocked”.
